# Read-outs that look alike come from different tables or passages of the source.
# Tests used:
# [1] = test system: rat and mouse striatal synaptosomes; settings: Rapier, El-Bizri, Rowell; cited from earlier work
# [2] = test system: mouse striatal synaptosomes; settings: Grady et al., cited from earlier work
# [3] = Amphetamine drug discrimination (substitution tests); assay type: in vivo, rat; settings: for amphetamine-correct responding reached by individual rats: any dose, none of the rats reached; for amphetamine-appropriate responding (partial substitution): nicotine 0.1-1.0 mg/kg, nornicotine 1-10 mg/kg; for relative potency, nicotine vs nornicotine: partial substitution for amphetamine
# Protocol: Rats were trained in on two-lever food-reinforced operant tasks to discriminate amphetamine (1 mg/kg) from saline. After discrimination training stabilized, test doses of amphetamine (0.0625-2.0 mg/kg), nicotine (0.1-1.0 mg/kg) or nornicotine (1-10 mg/kg) were assessed for their ability to substitute for the amphetamine training dose during brief test sessions in which food reinforcement was withheld.
# Nine male Sprague-Hawley rats were obtained from Harlan Industries (Indianapolis, Ind.) and were caged individually with water continuously available. Food access was restricted in order to maintain body weights at approximately 80% of free-feeding weight. Prior to the start of the experiment, all rats received a single injection of amphetamine (1 mg.kg, IP) as part of an unrelated experiment. Apparatus Six operant chambers (ENV-001, Med Associates, St. Albans, Vt.) enclosed in a sound attenuating environment were used. Located in the bottom center of the front panel in each chamber was a 5×4.-cm opening to a recessed food tray. Two metal response levers were located on the front panel, one on each side of the food tray. The center of each lever was mounted 7.3 cm from the grid floor. A 28-Vcue light, 3 cm in diameter, was centered 6 cm above each lever. A personal computer, interfaced to the chamber with Med Associates equipment, controlled the experimental sessions and collected data.
# The general procedures utilized to establish amphetamine discrimination were similar to those outlined previously (13). Briefly, rats were first given access to food pellets (45 mg sucrose pellet, Noyes Co., Lancaster, N.H.) dispensed noncontingently into the food tray with both levers present. One lever was then removed and the rat was shaped to depress the other lever for food reinforcement. Following this, rats received 15-min daily sessions in which the lever (left or right) available for food reinforcement was alternated daily. […] The start of each session was signaled by the onset of both cue lights mounted above the levers, and the termination of each session was signaled by the offset of these lights. This training phase was continued until the rat earned 20 reinforces on an FR25 schedule for two days.
# Amphetamine discrimination training was conducted Monday through Friday. For this training, both levers were mounted in the chamber. Amphetamine (A; 1 mg/kg) or saline (S), was injected IP 15 min prior to the start of the session, with the order of injections being either AASS or SSAA. The left lever was designated as the amphetamine-correct lever for 4 rats, while the right lever was amphetamine -correct for 5 rats. On Monday, Wednesday and Friday, injection-appropriate responding was food-reinforcedon an FR25 schedule for the entire 15-min session. However, 2-min extinction periods were instituted at the beginning of sessions on Tuesday and Thursday (one amphetamine and one saline test per week) to assess the control of amphetamine (or saline) over responding. […] During the remaining 13 min of these sessions, contingent reinforcement for injection-appropriate responding was reinstated. This phase of training was continued until the rat completed the first FR25 on the correct lever for 10 consecutive sessions and also completed 80% or more responses on the injection-appropriate lever during 4 consecutive extinction periods.
# The substitution phase was identical to the previously described amphetamine discrimination phase, except for the Friday session, which was decreased to a 4-min extinction session with no food available.
# [4] = NIC and metabolites in rat brain after s.c. injection of radiolabelled NIC; assay type: in vivo
# Source text: NIC metabolism studies involving HPLRC analysis invariably utilize NIC with a radiolabel (i.e., [^3 H], [^14 C] or [^11 C]) incorporated in the methyl group. However N-demethylated NIC metabolites (norNIC and norCOT) cannot be detected after injection of such radionuclides, since the label is lost in the formation of these metabolites. NIC and four NIC metabolites have recently been detected in rat brain 4 hr after s.c. injection of [2'-^14 C]NIC (FIG. 3, Table I). Three of these metabolites have been identified as COT, norNIC and norCOT. A fourth minor metabolite (Peak B) has not been completely identified but appears to be an N-demethylated metabolite, since it is not detected in the [^3 H-N-methyl]NIC studies.
# COT, and therefore, is unlikely to originate from COT N-demethylation. 3-HydroxyCOT and its glucuronide conjugate were not detected as metabolites of either NIC or COT in brain, even though these are major biotransformation products in the periphery (Crooks, 1993).
# It appears that NIC metabolites which accumulate with a time course that correlates with the development of behavioral sensitization to NIC have a role in eliciting sensitization to NIC. The inventors have detected NIC, COT, norNIC and norCOT in brain 4 hr following acute s.c. injection of (±)[2'-^14 C]NIC. S(-) [^3 H] -N-methyl]NIC is unsuitable for studying brain metabolism of NIC, since nor-metabolites (i.e., demethylated metabolites) cannot be detected due to [^3 H]-loss during metabolism (Crooks et al., 1995b, AP 7). Thus, commercially available (±)[2'-^14 C]NIC was used to determine NIC metabolites present in brain. This form of radiolabelled NIC provides a metabolically stable [^14 C]-label which allows measurement of all potential NIC metabolites.
# A second "metabolite" (Peak A, FIG. 2) was also detected at each time point and most likely results from a combination of metabolic cleavage of the N-methyl group and dissociated-[^3 H], i e, Peak A represents an oxidized 1-carbon unit and indicates the extent of NIC N-demethylation. Note, in our subsequent studies with [2'-^14 C]NIC, Peak A was not observed, which is consistent with our interpretation of the results (Table 1).
# [5] = hemodynamic function in conscious animals; assay type: in vivo; settings: behaviorally active doses
# [6] = cited from earlier work
# [7] = test system: nicotinic receptor sites in the brain; test: displacement of nicotine from nicotinic receptor sites in the brain; assay type: binding
# [8] = rats; cited from earlier work
# rat striatal slices = settings: 0.1-100 μM, 15 min exposure, Dwoskin et al., 1993, cited from earlier work
compound,measurement,setting,value
CN1CCC[C@H]1c1cccnc1 [S(-) nicotine],plateau concentration of concentration-response curve,[1],1 to 100 µM
same,EC50,"[2]; 1992, read-out: EC50 for NIC-stimulated, MEC-sensitive [3H]overflow",480 nM
same,EC50,"[2]; 1994, 0.1-30 μM, 10 min exposure, read-out: EC50, peak DA release",330 nM
same,total number of lever presses,[3]; 15 min,significant decreases in total number of lever presses
same,"plateau of dose-effect curve, amphetamine-appropriate responding",[3]; 45 min,50
same,total number of lever presses,[3]; 45 min,significant decrease in total number of lever presses
same,amphetamine-correct responding reached by individual rats,[3],< 80%
same,amphetamine-appropriate responding,"[3]; nicotine 1 mg/kg, 15 min",Approximately 50%
same,amphetamine-appropriate responding (maximum),"[3]; nicotine 1 mg/kg, 45 min",approximately 50%
same,"amphetamine-correct responses, individual rats","[3]; nicotine 1 mg/kg, 45 min",31-59%
same,amphetamine-appropriate responding (partial substitution),[3],approximately 50%
same,"relative potency, nicotine vs nornicotine",[3],more potent than nornicotine
same,level in CNS at 4 hrs post-NIC-injection,[4]; 4 hrs,only low levels were detected
same,Tmax,"[4]; in vivo, rat brain, read-out: time of maximum uptake in brain",30 to 60 min
"c1cncc([C@@H]2CCCN2)c1 [S(-) nornicotine, S-(-) nornicotine]",effect on hemodynamic function,[5],no adverse effective on hemodynamic function
same,detection in urine of human smokers,[6],detectable in the urine of human smokers
same,displacement of nicotine from nicotinic receptor sites,[7],cause displacement of nicotine
same,total number of lever presses,[3]; 15 min,significant decreases in total number of lever presses
same,"plateau of dose-effect curve, amphetamine-appropriate responding",[3]; 45 min,50
same,total number of lever presses,[3]; 45 min,significant decrease in total number of lever presses
same,amphetamine-correct responding reached by individual rats,[3],< 80%
same,amphetamine-appropriate responding (partial substitution),[3],approximately 50%
same,amphetamine-appropriate responding,"[3]; nornicotine 3 mg/kg, 15 min",Approximately 50%
same,amphetamine-appropriate responding (maximum),"[3]; nornicotine 10 mg/kg, 45 min",approximately 50%
same,"amphetamine-correct responses, individual rats","[3]; nornicotine 10 mg/kg, 45 min",33-61%
same,"relative potency, nicotine vs nornicotine",[3],less potent than nicotine
same,behavioral profile in drug discrimination,"[3]; rat, in vivo",behavioral profile similar to nicotine
same,substitution for nicotine in drug discrimination,[8],substitutes fully for nicotine
same,presence as metabolite in brain,"[4]; rat brain, after s.c. radiolabelled NIC",present in significant amounts in brain
same,endogenous DA release,rat striatal slices,concentration-dependent and Ca+-dependent increase
same,endogenous DA release,rat striatal slices; listed as S(-) enantiomer of norNIC,concentration-dependent and Ca^++ -dependent increase
